Test results taken from article PMC5874699, “Antimicrobial and Antibiofilm Activity of UP-5, an Ultrashort Antimicrobial Peptide Designed Using Only Arginine and Biphenylalanine” (Pharmaceuticals, 2018).

Experiments:
[1] = system: Staphylococcus aureus (ATCC 29213); assay type: cell-based; conditions: S. aureus ATCC 29213, antibiotic alone, triplicate; for Antibiotics MBC Alone: 99.9% killing; for Antibiotics MIC Alone: microbroth dilution
From the text: (§1) All bacterial susceptibility, biofilm, and synergistic assays of peptides, antibiotics, and peptides-antibiotics combinations used bacterial strains obtained from the American Type Tissue Culture Collection (ATCC, Manassas, VA, USA) that states the mechanism of resistance for each strain according to ATCC number. Gram-positive bacteria were represented by five strains, the wild type strain Staphylococcus aureus (ATCC 29213) and methicillin-resistant S. aureus (MRSA) (ATCC 33591) in addition to clinically isolated strains S. aureus (ATCC BAA-41& 43300) and Enterococcus faecalis (ATCC BAA-2316). The Gram-negative bacteria strains were represented by wild type strains of Escherichia coli (ATCC 25922 & 35218) and Pseudomonas aeruginosa (ATCC 27853) as well as the clinically isolated multidrug-resistant strain P. aeruginosa (ATCC BAA-2114). The bacteria were cultured onto Muller Hinton Agar (Scharlab, S.L, Barcelona, Spain). Mueller Hinton Broth (Oxoid Ltd., Basingstoke, UK) was used to prepare all bacterial suspensions and to dissolve the peptides and the antibiotics. The assay was performed in sterile 96-well polypropylene microtiter plates.
(§2) All bacterial susceptibility assays were conducted according to the microbroth dilution method outlined by the Clinical and Laboratory Standards Institute (CLSI) guidelines.
(§3) Briefly, pre-sterilized MHB was used as a growth medium for organisms obtained from stock media with glycerol. Bacterial cells were grown overnight in MHB and diluted to 10^6 CFU/mL in the same medium prior to use. For peptide, serial concentrations in the range of 0.5–100 μM were prepared. Then, 50 μL of each peptide concentration and 50 µL of diluted bacterial suspension were added to each well of a 96-well microtiter plate. Peptide solutions were prepared by dissolving the peptide in sterile MHB. Then, the plates were incubated overnight in a humidified atmosphere, and at 37 °C. Bacterial growth was determined by measuring the optical density (OD) at λ = 600 nm using an ELISA plate reader (Epoch, BioTek, Winooski, VT, USA) and the minimum inhibitory concentration (MIC) was determined.
(§4) As described in the previous section, the MIC and MBC values of antibiotics employed in this study were determined against subjected bacterial strains via preparing different concentrations of each antibiotic.

S. aureus (ATCC 43300) [2] = assay type: cell-based, Staphylococcus aureus; conditions: S. aureus ATCC 43300, antibiotic alone, triplicate; for Antibiotics MBC Alone: 99.9% killing; for Antibiotics MIC Alone: microbroth dilution
From the text: as §1, §2, §3, §4

S. aureus (ATCC BAA-41) [3] = assay type: cell-based, Staphylococcus aureus; conditions: S. aureus ATCC BAA-41, antibiotic alone, triplicate; for Antibiotics MBC Alone: 99.9% killing; for Antibiotics MIC Alone: microbroth dilution
From the text: as §1, §2, §3, §4

[4] = system: methicillin-resistant S. aureus (MRSA) (ATCC 33591); assay: MIC/MBC, microbroth dilution (CLSI); assay type: cell-based, Staphylococcus aureus; conditions: S. aureus ATCC 33591, antibiotic alone, triplicate; for Antibiotics MBC Alone: 99.9% killing; for Antibiotics MIC Alone: microbroth dilution
From the text: as §1, §2, §3, §4

[5] = system: P. aeruginosa (ATCC BAA-2114); assay type: cell-based, Pseudomonas aeruginosa; conditions: P. auroginosa ATCC BAA-2114, antibiotic alone, triplicate; for Antibiotics MBC Alone: 99.9% killing; for Antibiotics MIC Alone: microbroth dilution
From the text: as §1, §2, §3, §4

S. aureus (ATCC 29213) = assay: Broth microdilution checkerboard, UP-5 with antibiotics; assay type: cell-based, Staphylococcus aureus; conditions: for Antibiotics MIC in Combination: antibiotic in combination with UP-5, checkerboard, triplicate
From the text: as §1
(§5) According to the broth microdilution checkerboard technique, the MIC and MBC values of peptide-antibiotics combinations against wild type and multidrug resistant bacterial strains were determined. Serial concentrations of peptide and each antibiotic were prepared in the range of 0.005–100 μM. In each well of a 96-well microtiter plate, 25 μL of each peptide concentration were added to 25 μL of each antibiotic concentration which is followed by adding 50 μL of diluted bacterial suspension (10^6 CFU/mL) to each well. The prepared concentrations of peptide and each antibiotic were arranged into rows and columns, respectively, in a 96-well microtiter plate according the checkerboard technique. Then as described previously (see Section 2.4.1), the procedure was followed. All MIC and MBC determinations of all assays were made in triplicate.
(§6) The fractional inhibitory concentration (FIC) is defined as the inhibitory concentration of the antimicrobial combination divided by that of the single antimicrobial component. To calculate FIC index for peptide-antibiotic combinations, the following equation was used:(1) FIC index=MIC of drug X in combination/MIC of drug X alone+MIC of drug Y in combination/MIC of drug Y alone
(§7) The FIC indices were interpreted as follows: ≤0.5: synergistic activity, 0.5–1: additive activity, 1–4 indifferent, >4: antagonism. Interpretation and assessment of the FIC indices were performed according to the broth microdilution checkerboard technique.

S. aureus (ATCC 33591) = assay: as above; assay type: cell-based, Staphylococcus aureus; conditions: for Effect of the combination according to FIC value: S. aureus (ATCC 33591); for Antibiotics Reduction in MIC (%): antibiotic MIC in combination with UP-5 compared to MIC alone
From the text: as §1, §5, §6, §7

S. aureus (ATCC 43300) [6] = assay: as above; assay type: cell-based, Staphylococcus aureus; conditions: for Effect of the combination according to FIC value: S. aureus (ATCC 43300); for Antibiotics MIC in Combination: antibiotic in combination with UP-5, checkerboard, triplicate
From the text: as §1, §5, §6, §7

S. aureus (ATCC BAA-41) [7] = assay: as above; assay type: cell-based, Staphylococcus aureus; conditions: for Antibiotics MIC in Combination: antibiotic in combination with UP-5, checkerboard, triplicate
From the text: as §1, §5, §6, §7

[8] = system: P. aeruginosa (ATCC BAA-2114); assay: as above; assay type: cell-based, Pseudomonas aeruginosa; conditions: for Effect of the combination according to FIC value: P. aeruginosa (ATCC 2114 as printed); for Antibiotics Reduction in MIC (%): antibiotic MIC in combination with UP-5 compared to MIC alone; for Antibiotics MIC in Combination: antibiotic in combination with UP-5, checkerboard, triplicate
From the text: as §1, §5, §6, §7

| Structure (SMILES) | Antibiotics MBC Alone [1] [µM] | Antibiotics MIC Alone [1] [µM] | Antibiotics MBC Alone (S. aureus (ATCC 43300) [2]) [µM] | Antibiotics MIC Alone (S. aureus (ATCC 43300) [2]) [µM] | Antibiotics MBC Alone (S. aureus (ATCC BAA-41) [3]) [µM] | Antibiotics MIC Alone (S. aureus (ATCC BAA-41) [3]) [µM] | Antibiotics MBC Alone [4] [µM] | Antibiotics MIC Alone [4] [µM] | Antibiotics MBC Alone [5] [µM] | Antibiotics MIC Alone [5] [µM] | Antibiotics MIC in Combination (S. aureus (ATCC 29213); S. aureus ATCC 29213) [µM] | Effect of the combination according to FIC value (S. aureus (ATCC 33591); antibiotic-UP-5 combination) | Antibiotics Reduction in MIC (%) (S. aureus (ATCC 33591); S. aureus ATCC 33591) | Effect of the combination according to FIC value (S. aureus (ATCC 43300) [6]; antibiotic-UP-5 combination) | Antibiotics MIC in Combination (S. aureus (ATCC 43300) [6]; S. aureus ATCC 43300) [µM] | Antibiotics MIC in Combination (S. aureus (ATCC BAA-41) [7]; S. aureus ATCC BAA-41) [µM] | Effect of the combination according to FIC value ([8]; antibiotic-UP-5 combination) | Antibiotics Reduction in MIC (%) ([8]; P. auroginosa ATCC BAA-2114) | Antibiotics MIC in Combination ([8]; P. auroginosa ATCC BAA-2114) [µM] | further results |
| --- | --- | --- | --- | --- | --- | --- | --- | --- | --- | --- | --- | --- | --- | --- | --- | --- | --- | --- | --- | --- |
| CC1(C)S[C@@H]2[C@H](NC(=O)[C@H](N)c3ccccc3)C(=O)N2[C@H]1C(=O)O [Ampicillin, ampicillin] | 2.5 | 2.5 | 20 | 20 | 40 | 40 | 85 | 85 | > 500 | > 500 | 2.5 | synergistic (≤0.5: synergistic activity) | 85.3 | additive (0.5–1: additive activity) | 2.5 | 20 | additive (0.5–1: additive activity) | >50 | 250 | Antibiotics Reduction in MIC (%) (S. aureus (ATCC 29213); S. aureus ATCC 29213, antibiotic MIC in combination with UP-5 compared to MIC alone): <50% |
| O=C(N[C@H](CO)[C@H](O)c1ccc([N+](=O)[O-])cc1)C(Cl)Cl [Chloramphenicol, chloramphenicol] | 30 | 20 | 20 | 15 | 30 | 25 | 150 | 130 | 325 | 200 | 10 | additive (0.5–1: additive activity) | 50 | additive (0.5–1: additive activity) | 7.5 | 7.5 | synergistic (≤0.5: synergistic activity) | 93.7 | 12.5 | Effect of the combination according to FIC value (S. aureus (ATCC 29213); S. aureus (ATCC 29213), antibiotic-UP-5 combination): additive (0.5–1: additive activity); FIC Index (S. aureus (ATCC 29213); S. aureus ATCC 29213, antibiotic-UP-5 combination, checkerboard): 0.75; Antibiotics MIC in Combination (S. aureus (ATCC 33591); S. aureus ATCC 33591, antibiotic in combination with UP-5, checkerboard, triplicate): 65 µM; FIC Index (S. aureus (ATCC 33591); S. aureus ATCC 33591, antibiotic-UP-5 combination, checkerboard): 1; FIC Index (S. aureus (ATCC 43300) [6]; S. aureus ATCC 43300, antibiotic-UP-5 combination, checkerboard): 1; Effect of the combination according to FIC value (S. aureus (ATCC BAA-41) [7]; S. aureus (ATCC BAA-41), antibiotic-UP-5 combination): additive (0.5–1: additive activity); Antibiotics Reduction in MIC (%) (S. aureus (ATCC BAA-41) [7]; S. aureus ATCC BAA-41, antibiotic MIC in combination with UP-5 compared to MIC alone): 70%; FIC Index (S. aureus (ATCC BAA-41) [7]; S. aureus ATCC BAA-41, antibiotic-UP-5 combination, checkerboard): 0.8; FIC Index ([8]; P. auroginosa ATCC BAA-2114, antibiotic-UP-5 combination, checkerboard): 0.24 |
